Tests used:
Bovine brain ECs = format: cell-based
cAMP levels = format: cell-based
BBB = test system: BBB; design: species or system rats; settings: rat, in vivo

PDGF
Whether the factor accounts for the activity of astrocyte CM (Bovine brain ECs): could not be accounted for fully

C=C[C@@]1(C)CC(=O)[C@]2(O)[C@@]3(C)[C@@H](O)CCC(C)(C)[C@@H]3[C@H](O)[C@H](OC(C)=O)[C@@]2(C)O1 [forskolin]
Increase in cAMP levels (cAMP levels): two to threefold increase
Effect on electrical resistance (agents that elevate cAMP) (Bovine brain ECs): also effective

CC(C)NCC(O)COc1cccc2ccccc12 (centres unmarked) [propranolol]
Flux across high resistance monolayers (monolayers of brain ECs; Fig. 7 top, about 300 nM labeled tracer, apical to basolateral, 37): moved rapidly

OC[C@H]1O[C@@](CO)(O[C@H]2O[C@H](CO)[C@@H](O)[C@H](O)[C@H]2O)[C@@H](O)[C@@H]1O [sucrose]
Flux across low resistance monolayers (monolayers of brain ECs): much greater than that across high resistance monolayers

IGF-1
Whether the factor accounts for the activity of astrocyte CM (Bovine brain ECs): could not be accounted for fully

calcitonin gene-related peptide
Effect on electrical resistance (agents that elevate cAMP) (Bovine brain ECs): also effective

RO20-1724
Increase in cAMP levels (cAMP levels): two to threefold increase
Effect on electrical resistance (agents that elevate cAMP) (Bovine brain ECs): increases rapidly

8-(4-chlorophenylthio)-adenosine-3':5' mono- phosphate, cyclic [CPTcAMP]
Effect on electrical resistance (agents that elevate cAMP) (Bovine brain ECs): increases rapidly

CN[C@@H]1C[C@H]2O[C@@](C)([C@@H]1OC)n1c3ccccc3c3c4c(c5c6ccccc6n2c5c31)C(=O)NC4 [staurosporine]
Increase in ability of peripherally administered BSA to enter the brain (BBB): three to fivefold
Increase in ability of peripherally administered sucrose to enter the brain (BBB): three to fivefold

O=S(=O)(NCCNCC=Cc1ccc(Br)cc1)c1cccc2cnccc12 [H-89, N-[2-(p-bromocinnamylamino)ethyl]-5-isoquinolinesulfonamide]
Effect of protein kinase inhibitors on resistance (Bovine brain ECs): decreased

Atrial natriuretic factor
Effect on resistance (elevated cGMP) (Bovine brain ECs): simi- lar effects

Reference: paper PMC2289219 (The Journal of Cell Biology, 1991)
